Values belong to the compound of their own block, whether it stands above or below them.
Columns and labels:
[1] = Particle size distribution by laser light diffraction (Malvern Mastersizer 2000, Fraunhofer); type: physicochemical; conditions: cumulative volume
Protocol: In some embodiments, the particle size distribution and the PSD90 of a compound of the invention is determined by the laser light diffraction particle size distribution analysis. The particle size distribution is determined in accordance with the Fraunhofer light diffraction method. In this method, a coherent laser beam passes through the sample and the resulting diffraction pattern is focused on a multi-element detector. Since the diffraction pattern depends, among other parameters, on particle size, the particle size distribution can be calculated based on the measured diffraction pattern of the sample. The method is described in more detail in USP38-NF33, <429> Light Diffraction Measurement of Particle Size.
The particle size distribution was determined in accordance with the Fraunhofer light diffraction method. A coherent laser beam was passed through the sample and the resulting diffraction pattern was focused on a multi-element detector. Because the diffraction pattern depends, among other parameters, on particle size, the particle size distribution (PSD) was calculated based on the measured diffraction patter of the sample.
Stock dispersion solution was prepared by adding a few drops of the dispersing aid (e.g., 1% w/w solution of a detergent in white spirit such as Span 80, Fluka (85548-250 ml)) to an appropriate amount of substance and mixed carefully. The dispersion was then slowly diluted to a final volume of about 10 ml while vortexing. The suspension cell of the instrument (Malvern Mastersizer 2000 equipped with Hydro 2000S sample dispersion unit) was filled with dispersion medium and a background measurement was taken. […] The cumulative volume distribution was determined in accordance with the instrument's instruction manual.
The PSD10, PSD50, and PSD90 values were determined from the cumulative volume distribution of each measurement. Values smaller than 10 μm were reported to one decimal place. Results larger than 10 μm were reported as single digit values. Sample parameters used in analysis are shown below: […]

[2] = Effect of steady-state gemcabene 600 mg on single-dose pharmacokinetics of ON 1/35 (ethinyl estradiol/norethindrone) in healthy female subjects; type: in vivo, human; conditions: for exposure in presence of gemcabene calcium salt hydrate Crystal Form 1 (geometric LS mean ratio): single dose ON 1/35 with gemcabene 600 mg daily at steady state, mild drug-drug interaction
Protocol: An open-label, two-sequence, cross-over study to assess the steady-state effects of gemcabene on the single-dose pharmacokinetics (PK) of oral contraceptive tablets in healthy female subjects was conducted with 300 mg tablets containing gemcabene calcium salt hydrate Crystal Form 1 having PSD90 of 52 μm (Tablet F).
The population for this study was generally healthy, adult female subjects of childbearing potential (≥18 to ≤35 years of age). This population supports the overall objective of the study to evaluate the effect of 600 mg of gemcabene calcium salt hydrate Crystal Form 1 having PSD90 of 52 μm at steady-state on the PK of a single dose of ON 1/35 (Ortho Novum 1/35; combined ethinyl estradiol/norethindrone oral contraceptive). The primary objective of this study was to assess the effect of daily 600 mg of gemcabene calcium salt hydrate Crystal Form 1 having PSD90 of 52 μm at steady-state on the pharmacokinetics (PK) of ON 1/35. The secondary objectives of this study were to assess the safety and tolerability of daily gemcabene 600 mg in combination with a single-dose ON 1/35 and to assess the steady-state PK of 600 mg of gemcabene calcium salt hydrate Crystal Form 1 having PSD90 of 52 μm (Tablet F×2).
Gemcabene calcium salt hydrate Crystal Form 1 having PSD90 of 52 μm was administered orally as a single dose of 600 mg, given as two 300 mg tablets (300-mg Tablet F×2) (with 240 mL of water). Gemcabene calcium salt hydrate Crystal Form 1 having PSD90 of 52 μm (600 mg) was administered at the same time each day.
Non-compartmental PK single-dose parameters were obtained, including Cmax, time to the maximum observed plasma concentration (Tmax), AUC from time 0 to time of last detectable concentration (AUClast) and when possible, AUC extrapolated to infinite time (AUC∞), percent of AUC∞ obtained from forward extrapolation (AUCextrap %), apparent terminal rate constant (λz), apparent terminal half-life ([…]), apparent total body clearance (CL/F), and apparent volume of distribution of the terminal phase (Vz/F) for ethinyl estradiol and norethindrone.

[3] = system: hepatic mRNA expression in STAM™ mice; experiment: Murine STAM model of NASH-HCC: hepatic gene expression by quantitative RT-PCR; type: in vivo, mouse
Protocol: A study was performed to evaluate the efficacy of gemcabene calcium salt hydrate Crystal Form 1 having a PSD90 of 52 μm as measured by laser light diffraction, in treating non-alcoholic steatosis hepatitis (NASH) in the murine STAM™ model of NASH-HCC.
Briefly, two-day old neonatal C57BL/6 male mice were administered low-dose streptozotocin (STZ), and were subsequently fed a HFC diet from 4 weeks of age. In this model, the mice typically develop liver steatosis and diabetes, reaching steatohepatitis within 3 weeks, followed by cirrhosis within 8 weeks, and carcinoma within 16 weeks. In the current study, mice were administered daily oral gemcabene calcium salt hydrate Crystal Form 1 starting at week 6 of age and were sacrificed at week 9. Telmisartan (with antisteatotic, anti-inflammatory and antifibrotic effects in STAM™ mice) was used as a positive comparator. A baseline reference group was administered vehicle at day 2 of age, and from week 6 of age was vehicle-treated and chow-fed. Five STAM™ groups were streptozocin-treated at day 2 of age and fed a HFC-diet beginning with week 4 of age. These STAM™ groups were orally administered from week 6 one of the following: water-vehicle, gemcabene calcium salt hydrate Crystal Form 1 at 30, 100 and 300 mg/kg daily, or telmisartan ([…]®) 10 mg/kg daily. Telmisartan ([…]®) was purchased from Boehringer Ingelheim GmbH (Germany) and dissolved in pure water. All groups were sacrificed at week 9. Vehicle, gemcabene calcium salt hydrate Crystal Form 1, or telmisartan were administered by oral gavage once daily.
Various gene expression markers of liver metabolism were evaluated by Real-Time PCR (RT-PCR) in all mouse groups. Total RNA was extracted from liver samples using RNAiso (Takara Bio, Japan) according to the manufacturer's instructions. One μg of RNA was reverse-transcribed using a reaction mixture containing 4.4 mM MgCl2 (F. Hoffmann-La Roche, Switzerland), 40 U RNase inhibitor (Toyobo, Japan), 0.5 mM dNTP (Promega, USA), 6.28 μM random hexamer (Promega), 5× first strand buffer (Promega), 10 mM dithiothreitol (Invitrogen, USA) and 200 U MMLV-RT (Invitrogen) in a final volume of 20 μL. The reaction was carried out for 1 hour at 37° C., followed by 5 minutes at 99° C. Real-time PCR was performed using real-time PCR DICE and SYBR premix Taq (Takara Bio). To calculate the relative mRNA expression level, the expression of each gene was normalized to that of reference gene 36B4 (gene symbol: Rplp0). Information of PCR-primer sets is described in Tables 20A-20C. Statistical analyses were performed using the Bonferroni Multiple Comparison Test on GraphPad Prism 6 (GraphPad Software Inc., USA). P values <0.05 were considered statistically significant. Results are expressed as mean±SD.
In order to calculate the relative mRNA expression level, the expression of each gene was normalized to that of the reference gene 36B4 (gene symbol: Rplp0). The gene expression levels were measured by quantitative RT-PCR. Results were normalized with values for the vehicle-treated normal group. […] Gemcabene calcium salt hydrate Crystal Form 1 (PSD90=52 μm) modulated the mRNA expression of many hepatic genes that play a significant role in the liver homeostasis and injury.

[4] = Treatment B = single dose ON 1/35 and daily gemcabene 600 mg, Treatment A = single dose ON 1/35 alone, healthy female subjects
[5] = 10 mg/kg, normalized to Vehicle in Normal, mean ± SD, n = 7

Compound: CC(C)(CCCCOCCCCC(C)(C)C(=O)[O-])C(=O)[O-].[Ca+2] [Sample 1]
- D10 (PSD10) [1]: 6.3 μm
- D50 (PSD50) [1]: 50.4 μm

Compound: CC(C)(CCCCOCCCCC(C)(C)C(=O)[O-])C(=O)[O-].[Ca+2] [Sample 2]
- D10 (PSD10) [1]: 4.8 μm
- D50 (PSD50) [1]: 22.9 μm

Compound: CC(C)(CCCCOCCCCC(C)(C)C(=O)[O-])C(=O)[O-].[Ca+2] [Sample 3]
- D10 (PSD10) [1]: 5.3 μm
- D50 (PSD50) [1]: 32.2 μm

Compound: CC(C)(CCCCOCCCCC(C)(C)C(=O)[O-])C(=O)[O-].[Ca+2] [Sample 4]
- D10 (PSD10) [1]: 5.8 μm
- D50 (PSD50) [1]: 22 μm
- D90 (PSD90) [1]: 52 μm

Compound: CC(C)(CCCCOCCCCC(C)(C)C(=O)[O-])C(=O)[O-].[Ca+2] [Sample 5]
- D10 (PSD10) [1]: 7.8 μm
- D50 (PSD50) [1]: 101 μm
- D90 (PSD90) [1]: 431 μm

Compound: CC(C)(CCCCOCCCCC(C)(C)C(=O)[O-])C(=O)[O-].[Ca+2] [Sample 6]
- D10 (PSD10) [1]: 7.8 μm
- D50 (PSD50) [1]: 25 μm
- D90 (PSD90) [1]: 52 μm

Compound: CC(C)(CCCCOCCCCC(C)(C)C(=O)[O-])C(=O)[O-].[Ca+2] [Sample 7]
- D10 (PSD10) [1]: 5.4 μm
- D50 (PSD50) [1]: 20 μm
- D90 (PSD90) [1]: 62 μm

Compound: CC(C)(CCCCOCCCCC(C)(C)C(=O)[O-])C(=O)[O-].[Ca+2] [Sample 8]
- D10 (PSD10) [1]: 8.2 μm
- D50 (PSD50) [1]: 24 μm
- D90 (PSD90) [1]: 48 μm

Compound: CC(C)(CCCCOCCCCC(C)(C)C(=O)[O-])C(=O)[O-].[Ca+2] [Sample 9]
- D10 (PSD10) [1]: 17 μm
- D50 (PSD50) [1]: 386 μm
- D90 (PSD90) [1]: 996 μm

Compound: CC(C)(CCCCOCCCCC(C)(C)C(=O)[O-])C(=O)[O-].[Ca+2] [Sample 10]
- D90 (PSD90) [1]: 55 μm

Compound: CC(C)(CCCCOCCCCC(C)(C)C(=O)[O-])C(=O)[O-].[Ca+2] [Sample 11]
- D90 (PSD90) [1]: 47 μm

- AUC0-12 (h*pg/mL): Ratio Geom. LS Mean (Treatment B/Treatment A) [2, 4]: 78.54%
- AUClast (h*pg/mL): Ratio Geom. LS Mean (Treatment B/Treatment A) [2, 4]: 86.70%
- Cmax (pg/mL): Ratio Geom. LS Mean (Treatment B/Treatment A) [2, 4]: 70.50%
- exposure in presence of gemcabene calcium salt hydrate Crystal Form 1 (geometric LS mean ratio) [2]: slightly decreased
Compound: C#C[C@]1(O)CC[C@H]2[C@@H]3CCc4cc(O)ccc4[C@H]3CC[C@@]21C [ethinyl estradiol]

- AUCinf (h*pg/mL): Ratio Geom. LS Mean (Treatment B/Treatment A) [2, 4]: 86.33%
- AUClast (h*pg/mL): Ratio Geom. LS Mean (Treatment B/Treatment A) [2, 4]: 85.94%
- Cmax (pg/mL): Ratio Geom. LS Mean (Treatment B/Treatment A) [2, 4]: 90.56%
- exposure in presence of gemcabene calcium salt hydrate Crystal Form 1 (geometric LS mean ratio) [2]: slightly decreased
Compound: C#C[C@]1(O)CC[C@H]2[C@@H]3CCC4=CC(=O)CC[C@@H]4[C@H]3CC[C@@]21C [norethindrone]

Compound: CCCc1nc2c(C)cc(-c3nc4ccccc4n3C)cc2n1Cc1ccc(-c2ccccc2C(=O)O)cc1 [telmisartan, reference compound]
- ANGPTL3 gene expression (hepatic mRNA, RT-PCR) [3, 5]: 0.7 ± 0.2
- ANGPTL4 gene expression (hepatic mRNA, RT-PCR) [3, 5]: 2.1 ± 0.3
- CCR5 gene expression (hepatic mRNA, RT-PCR) [3, 5]: 1.5 ± 0.3
- CXCL1/KC gene expression (hepatic mRNA, RT-PCR) [3, 5]: 0.6 ± 0.3
- LPL gene expression (hepatic mRNA, RT-PCR) [3, 5]: 2.4 ± 0.5
- Sulf-2 gene expression (hepatic mRNA, RT-PCR) [3, 5]: 3.9 ± 0.9
- CRP mRNA levels ([3]; telmisartan 10 mg/kg, vs vehicle-treated STAM group): No significant differences

From US20200148617A1, “GEMCABENE, PHARMACEUTICALLY ACCEPTABLE SALTS THEREOF, COMPOSITIONS THEREOF AND METHODS OF USE THEREFOR” (GEMPHIRE THERAPEUTICS INC., priority 2017, published 2020)
